From patent US12723063B2, “GIPR-agonist compounds” (Eli Lilly and Company, priority 2019, dated 2026) come the findings set out here.

As usually defined, the Ki is a dissociation constant, usually derived from enzyme kinetics or from competition with a known ligand.

Assay [1] deals with T1, human GcgR (Homo sapiens, UniProt P47871).
T1 construct: expressed in transfected cells; crude membranes
The assay is described as follows: [125I]-Glucagon binding, SPA with WGA beads, 0.1% bacitracin. As to conditions: geometric mean, read-out: hGcgR Ki. The method, boiled down:
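SPA competition binding with WGA beads on crude membranes from HEK293 cells stably expressing hGcgR. Buffer: 25 mM HEPES pH 7.4, 2.5 mM CaCl2, 1 mM MgCl2, 0.1% bacitracin, 0.003% Tween-20; 10-point 3-fold dilutions, NSB with 1 μM Gcg.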

The target in assay [2] is T2, human GLP-1R (Homo sapiens, UniProt P43220).
T2 construct: expressed in transfected cells; crude membranes
T2 sequence (P43220 24-463): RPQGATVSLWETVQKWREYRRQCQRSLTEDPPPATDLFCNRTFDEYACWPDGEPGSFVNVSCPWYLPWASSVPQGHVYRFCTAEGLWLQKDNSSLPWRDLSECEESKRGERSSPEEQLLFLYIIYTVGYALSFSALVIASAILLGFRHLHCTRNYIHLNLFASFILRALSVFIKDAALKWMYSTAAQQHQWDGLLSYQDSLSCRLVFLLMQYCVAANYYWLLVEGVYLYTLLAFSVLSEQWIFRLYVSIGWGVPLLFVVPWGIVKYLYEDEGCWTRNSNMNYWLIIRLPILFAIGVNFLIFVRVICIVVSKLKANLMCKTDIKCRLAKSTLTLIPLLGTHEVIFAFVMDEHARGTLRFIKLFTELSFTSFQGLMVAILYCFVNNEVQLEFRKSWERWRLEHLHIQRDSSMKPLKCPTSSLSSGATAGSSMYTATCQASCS
The assay is described as follows: [125I]-GLP-1 binding, SPA with WGA beads, 0.1% bacitracin. As to conditions: geometric mean, read-out: hGLP1R Ki. The method, boiled down: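 Binding buffer was 25 mM HEPES pH 7.4 with 2.5 mM CaCl2, 1 mM MgCl2, 0.1% (w/v) bacitracin, 0.003% Tween-20 and EDTA-free protease inhibitors. Four-parameter regression gave IC50, converted to Ki (geometric mean, SEM, n independent days).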

Assay [3] deals with T3, human GIPR (Homo sapiens, UniProt P48546).
T3 construct: expressed in transfected cells; crude membranes
T3 sequence (P48546 22-466): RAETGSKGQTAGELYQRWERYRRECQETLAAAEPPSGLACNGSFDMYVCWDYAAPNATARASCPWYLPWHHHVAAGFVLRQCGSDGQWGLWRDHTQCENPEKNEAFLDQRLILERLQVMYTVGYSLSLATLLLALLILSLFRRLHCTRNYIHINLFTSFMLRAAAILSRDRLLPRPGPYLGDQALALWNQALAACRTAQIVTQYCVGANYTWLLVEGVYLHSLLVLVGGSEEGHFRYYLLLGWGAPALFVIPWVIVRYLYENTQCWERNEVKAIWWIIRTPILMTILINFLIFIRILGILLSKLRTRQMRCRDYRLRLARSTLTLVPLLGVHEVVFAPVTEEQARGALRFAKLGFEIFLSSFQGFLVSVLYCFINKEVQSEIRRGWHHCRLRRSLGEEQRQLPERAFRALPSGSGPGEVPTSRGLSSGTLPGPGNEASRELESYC
The assay is described as follows: [125I]-GIP binding, SPA with WGA beads, 0.1% bacitracin. The conditions noted are these: geometric mean, read-out: hGIPR Ki. A digest of the protocol: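 Ki values are geometric means (SEM, n independent days), derived from four-parameter nonlinear regression of IC50. Membranes came from hGIPR-expressing CHO cells.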

SMILES strings stand for the structures. *1 amine or outer side, *2 acyl side, *3 side chain or, on linkers, in order; H or OH if unused. Where a SMILES comes first, the peptide text is derived from it. Side-chain parts run from the residue outwards. [ ]: non-standard residue; d: D form. The star is where a group is joined. C20 diacid = O=C(O)CCCCCCCCCCCCCCCCCCC(=O)*; C18 diacid = O=C(O)CCCCCCCCCCCCCCCCC(=O)*; αMePhe(2-F) = C[C@](N)(Cc1ccccc1F)C(=O)O; γGlu = O=C(O)[C@H](CCC(=O)[*:2])N[*:1]; AEEA = NCCOCCOCC(=O)O; Aib = CC(C)(N)C(=O)O

T1 sequence (P47871 26-477): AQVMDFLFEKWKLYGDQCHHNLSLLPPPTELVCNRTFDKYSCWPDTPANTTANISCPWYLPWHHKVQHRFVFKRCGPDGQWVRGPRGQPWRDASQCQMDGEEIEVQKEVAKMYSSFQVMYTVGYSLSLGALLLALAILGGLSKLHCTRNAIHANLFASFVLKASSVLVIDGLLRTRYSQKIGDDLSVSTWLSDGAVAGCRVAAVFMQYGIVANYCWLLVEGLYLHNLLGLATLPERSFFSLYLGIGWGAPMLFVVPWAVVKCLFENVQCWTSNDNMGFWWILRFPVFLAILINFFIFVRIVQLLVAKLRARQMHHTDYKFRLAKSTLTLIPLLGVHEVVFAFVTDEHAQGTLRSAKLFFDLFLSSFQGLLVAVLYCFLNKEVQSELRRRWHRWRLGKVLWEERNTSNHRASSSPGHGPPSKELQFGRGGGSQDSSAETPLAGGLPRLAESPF

Regarding `CC[C@H](C)[C@H](NC(=O)[C@H](CO)NC(=O)[C@H](Cc1ccc(O)cc1)NC(=O)[C@H](CC(=O)O)NC(=O)[C@H](CO)NC(=O)[C@@H](NC(=O)[C@](C)(Cc1ccccc1F)NC(=O)[C@@H](NC(=O)CNC(=O)[C@H](CCC(=O)O)NC(=O)C(C)(C)NC(=O)[C@@H](N)Cc1ccc(O)cc1)[C@@H](C)O)[C@@H](C)CC)C(=O)N[C@@H](C)C(=O)N[C@@H](CC(C)C)C(=O)N[C@@H](CC(=O)O)C(=O)N[C@@H](CCCCN)C(=O)N[C@@H](CCCCNC(=O)COCCOCCNC(=O)COCCOCCNC(=O)CC[C@H](NC(=O)CCCCCCCCCCCCCCCCCCC(=O)O)C(=O)O)C(=O)N[C@@H](Cc1c[nH]cn1)C(=O)N[C@@H](CCC(N)=O)C(=O)NC(C)(C)C(=O)N[C@@H](CCC(=O)O)C(=O)N[C@@H](Cc1ccccc1)C(=O)N[C@H](C(=O)N[C@@H](CC(N)=O)C(=O)N[C@@H](Cc1c[nH]c2ccccc12)C(=O)N[C@@H](CC(C)C)C(=O)N[C@@H](CC(C)C)C(=O)N[C@@H](C)C(=O)NCC(=O)NCC(=O)N1CCC[C@H]1C(=O)N[C@@H](CO)C(=O)N[C@@H](CO)C(=O)NCC(=O)N[C@@H](C)C(=O)N1CCC[C@H]1C(=O)N1CCC[C@H]1C(=O)N1CCC[C@H]1C(=O)N[C@@H](CO)C(N)=O)C(C)C` [Example 26] (H-Y[Aib]EGT[αMePhe(2-F)]ISDYSIALDKK([AEEA-AEEA-γGlu-C20 diacid])HQ[Aib]EFVNWLLAGGPSSGAPPPS-NH2), the values for the Ki in assay [1], in assay [2] and in assay [3] were 74.1 nM, 16.5 nM and 0.045 nM, respectively.
The matching figures for `CC[C@H](C)[C@H](NC(=O)[C@H](CO)NC(=O)[C@H](Cc1ccc(O)cc1)NC(=O)[C@H](CC(=O)O)NC(=O)[C@H](CO)NC(=O)[C@@H](NC(=O)[C@H](Cc1ccccc1)NC(=O)[C@@H](NC(=O)CNC(=O)[C@H](CCC(=O)O)NC(=O)[C@@H](C)NC(=O)[C@@H](N)Cc1ccc(O)cc1)[C@@H](C)O)[C@@H](C)CC)C(=O)N[C@@H](CC(C)C)C(=O)N[C@@H](CC(C)C)C(=O)N[C@@H](CC(=O)O)C(=O)N[C@@H](CCCCN)C(=O)N[C@@H](CCCCNC(=O)COCCOCCNC(=O)COCCOCCNC(=O)CC[C@H](NC(=O)CCCCCCCCCCCCCCCCC(=O)O)C(=O)O)C(=O)N[C@@H](C)C(=O)N[C@@H](CCC(N)=O)C(=O)NC(C)(C)C(=O)N[C@@H](CCC(=O)O)C(=O)N[C@@H](Cc1ccccc1)C(=O)N[C@H](C(=O)N[C@@H](CCC(N)=O)C(=O)N[C@@H](Cc1c[nH]c2ccccc12)C(=O)N[C@@H](CC(C)C)C(=O)N[C@@H](CC(C)C)C(=O)N[C@@H](C)C(=O)NCC(=O)NCC(=O)N1CCC[C@H]1C(=O)N[C@@H](CO)C(=O)N[C@@H](CO)C(=O)NCC(=O)N[C@@H](C)C(=O)N1CCC[C@H]1C(=O)N1CCC[C@H]1C(=O)N1CCC[C@H]1C(=O)N[C@@H](CO)C(N)=O)C(C)C` [Example 27] (H-Y[dA]EGTFISDYSILLDKK([AEEA-AEEA-γGlu-C18 diacid])AQ[Aib]EFVQWLLAGGPSSGAPPPS-NH2): 401 nM, 23.2 nM and 0.0354 nM.
As to `CC[C@H](C)[C@H](NC(=O)[C@H](CO)NC(=O)[C@H](Cc1ccc(O)cc1)NC(=O)[C@H](CC(=O)O)NC(=O)[C@H](CO)NC(=O)[C@@H](NC(=O)[C@H](Cc1ccccc1)NC(=O)[C@@H](NC(=O)CNC(=O)[C@H](CCC(=O)O)NC(=O)[C@@H](C)NC(=O)[C@@H](N)Cc1ccc(O)cc1)[C@@H](C)O)[C@@H](C)CC)C(=O)N[C@@H](CC(C)C)C(=O)N[C@@H](CC(C)C)C(=O)N[C@@H](CC(=O)O)C(=O)N[C@@H](CCCCN)C(=O)N[C@@H](CCCCNC(=O)COCCOCCNC(=O)COCCOCCNC(=O)CC[C@H](NC(=O)CCCCCCCCCCCCCCCCC(=O)O)C(=O)O)C(=O)N[C@@H](C)C(=O)N[C@@H](CCC(N)=O)C(=O)NC(C)(C)C(=O)N[C@@H](CCC(=O)O)C(=O)N[C@@H](Cc1ccccc1)C(=O)N[C@H](C(=O)N[C@@H](CC(N)=O)C(=O)N[C@@H](Cc1c[nH]c2ccccc12)C(=O)N[C@@H](CC(C)C)C(=O)N[C@@H](CC(C)C)C(=O)N[C@@H](CCC(=O)O)C(=O)NCC(=O)NCC(=O)N1CCC[C@H]1C(=O)N[C@@H](CO)C(=O)N[C@@H](CO)C(=O)NCC(=O)N[C@@H](C)C(=O)N1CCC[C@H]1C(=O)N1CCC[C@H]1C(=O)N1CCC[C@H]1C(=O)N[C@@H](CO)C(N)=O)C(C)C` [Example 28] (H-Y[dA]EGTFISDYSILLDKK([AEEA-AEEA-γGlu-C18 diacid])AQ[Aib]EFVNWLLEGGPSSGAPPPS-NH2), the Ki turned out to be 86.8 nM in assay [1], 6.46 nM in assay [2] and 0.0732 nM in assay [3].
Taken in the same sequence, the figures for `CC[C@H](C)[C@H](NC(=O)[C@H](CO)NC(=O)[C@H](Cc1ccc(O)cc1)NC(=O)[C@H](CC(=O)O)NC(=O)[C@H](CO)NC(=O)[C@@H](NC(=O)[C@H](Cc1ccccc1)NC(=O)[C@@H](NC(=O)CNC(=O)[C@H](CCC(=O)O)NC(=O)[C@@H](C)NC(=O)[C@@H](N)Cc1ccc(O)cc1)[C@@H](C)O)[C@@H](C)CC)C(=O)N[C@@H](CC(C)C)C(=O)N[C@@H](CC(C)C)C(=O)N[C@@H](CC(=O)O)C(=O)N[C@@H](CCCCN)C(=O)N[C@@H](CCCCNC(=O)COCCOCCNC(=O)COCCOCCNC(=O)CC[C@H](NC(=O)CCCCCCCCCCCCCCCCC(=O)O)C(=O)O)C(=O)N[C@@H](C)C(=O)N[C@@H](CCC(N)=O)C(=O)NC(C)(C)C(=O)N[C@@H](CCC(=O)O)C(=O)N[C@@H](Cc1ccccc1)C(=O)N[C@H](C(=O)N[C@@H](CCC(=O)O)C(=O)N[C@@H](Cc1c[nH]c2ccccc12)C(=O)N[C@@H](CC(C)C)C(=O)N[C@@H](CC(C)C)C(=O)N[C@@H](C)C(=O)NCC(=O)NCC(=O)N1CCC[C@H]1C(=O)N[C@@H](CO)C(=O)N[C@@H](CO)C(=O)NCC(=O)N[C@@H](C)C(=O)N1CCC[C@H]1C(=O)N1CCC[C@H]1C(=O)N1CCC[C@H]1C(=O)N[C@@H](CO)C(N)=O)C(C)C` [Example 29] (H-Y[dA]EGTFISDYSILLDKK([AEEA-AEEA-γGlu-C18 diacid])AQ[Aib]EFVEWLLAGGPSSGAPPPS-NH2) were 133 nM, 22.7 nM and 0.0569 nM.
The matching figures for `CC[C@H](C)[C@H](NC(=O)[C@H](CO)NC(=O)[C@H](Cc1ccc(O)cc1)NC(=O)[C@H](CC(=O)O)NC(=O)[C@H](CO)NC(=O)[C@@H](NC(=O)[C@](C)(Cc1ccccc1F)NC(=O)[C@@H](NC(=O)CNC(=O)[C@H](CCC(=O)O)NC(=O)[C@H](C)NC(=O)[C@@H](Cc1ccc(O)cc1)NC(C)=O)[C@@H](C)O)[C@@H](C)CC)C(=O)N[C@@H](C)C(=O)N[C@@H](CC(C)C)C(=O)N[C@@H](CC(=O)O)C(=O)N[C@@H](CCCCN)C(=O)N[C@@H](CCCCNC(=O)COCCOCCNC(=O)COCCOCCNC(=O)CC[C@H](NC(=O)CCCCCCCCCCCCCCCCC(=O)O)C(=O)O)C(=O)N[C@@H](Cc1c[nH]cn1)C(=O)N[C@@H](CCC(N)=O)C(=O)NC(C)(C)C(=O)N[C@@H](CCC(=O)O)C(=O)N[C@@H](Cc1ccccc1)C(=O)N[C@H](C(=O)N[C@@H](CC(N)=O)C(=O)N[C@@H](Cc1ccc(O)cc1)C(=O)N[C@@H](CC(C)C)C(=O)N[C@@H](CC(C)C)C(=O)N[C@@H](C)C(=O)NCC(=O)NCC(=O)N1CCC[C@H]1C(=O)N[C@@H](CO)C(=O)N[C@@H](CO)C(=O)NCC(=O)N[C@@H](C)C(=O)N1CCC[C@H]1C(=O)N1CCC[C@H]1C(=O)N1CCC[C@H]1C(=O)N[C@@H](CO)C(N)=O)C(C)C` [Example 30] (Ac-[dY]AEGT[αMePhe(2-F)]ISDYSIALDKK([AEEA-AEEA-γGlu-C18 diacid])HQ[Aib]EFVNYLLAGGPSSGAPPPS-NH2): 407 nM, 26.5 nM and 0.037 nM.
